ChEMBL document CHEMBL1130555, “Synthesis and biological activity of novel 3-trifluoromethyl taxoids” (Bioorg Med Chem Lett, 1997)
pIC50: −log10 of the molar value.

Experiments:
Assay type in all cases: functional, cell-based
A549 = assay: Cytotoxicity was evaluated against A549 non-small cell lung carcinoma human cancer cell line
HT-29 = assay: Cytotoxicity was evaluated against HT-29 colon carcinoma human cancer cell line
MCF7R = assay: Cytotoxicity was evaluated against MCF7-R (mammary carcinoma 180-fold resistant to doxorubicin, expressing MDR phenotype) human breast cancer cell line
MCF7 = assay: Cytotoxicity was evaluated against MCF-7 mammary carcinoma human breast cancer cell line
A121 = assay: Cytotoxicity was evaluated against A121 ovarian carcinoma human cancer cell line

| Compound | pIC50 (A549) | pIC50 (HT-29) | pIC50 (MCF7R) | pIC50 (MCF7) | pIC50 (A121) |
| --- | --- | --- | --- | --- | --- |
| CCC(=O)O[C@H]1C(=O)[C@@]2(C)[C@H]([C@H](OC(=O)c3ccccc3)[C@]3(O)C[C@H](OC(=O)[C@H](O)[C@@H](NC(=O)OC(C)(C)C)C(F)(F)F)C(C)=C1C3(C)C)[C@]1(OC(C)=O)CO[C@@H]1C[C@@H]2O | 9.52 | 9.40 | 7.85 | 9.52 | 9.52 |
| CC(=O)O[C@@]12CO[C@@H]1C[C@H](O)[C@@]1(C)C(=O)[C@H](OC(=O)C3CC3)C3=C(C)[C@@H](OC(=O)[C@H](O)[C@@H](NC(=O)OC(C)(C)C)C(F)(F)F)C[C@@](O)([C@@H](OC(=O)c4ccccc4)[C@H]21)C3(C)C | 9.40 | 9.30 | 7.80 | 9.30 | 9.40 |
| COC(=O)O[C@H]1C(=O)[C@@]2(C)[C@H]([C@H](OC(=O)c3ccccc3)[C@]3(O)C[C@H](OC(=O)[C@H](O)[C@@H](NC(=O)OC(C)(C)C)C(F)(F)F)C(C)=C1C3(C)C)[C@]1(OC(C)=O)CO[C@@H]1C[C@@H]2O | 9.70 | 9.40 | 7.68 | 9.40 | 9.52 |
| CC(=O)O[C@@]12CO[C@@H]1C[C@H](O)[C@@]1(C)C(=O)[C@H](O)C3=C(C)[C@@H](OC(=O)[C@H](O)[C@@H](NC(=O)OC(C)(C)C)C(F)(F)F)C[C@@](O)([C@@H](OC(=O)c4ccccc4)[C@H]21)C3(C)C | 9.36 | 9.19 | 6.81 | 9.36 | 8.94 |
| CC(=O)O[C@H]1C(=O)[C@@]2(C)[C@H]([C@H](OC(=O)c3ccccc3)[C@]3(O)C[C@H](OC(=O)[C@H](O)[C@@H](NC(=O)OC(C)(C)C)C(F)(F)F)C(C)=C1C3(C)C)[C@]1(OC(C)=O)CO[C@@H]1C[C@@H]2O | 9.70 | 9.40 | 6.81 | 9.22 | 9.52 |
| CCCCC(=O)O[C@H]1C(=O)[C@@]2(C)[C@H]([C@H](OC(=O)c3ccccc3)[C@]3(O)C[C@H](OC(=O)[C@H](O)[C@@H](NC(=O)OC(C)(C)C)C(F)(F)F)C(C)=C1C3(C)C)[C@]1(OC(C)=O)CO[C@@H]1C[C@@H]2O | 9.10 | 8.85 | 7.59 | 9.15 | 9.15 |
| CC(=O)O[C@@]12CO[C@@H]1C[C@H](O)[C@@]1(C)C(=O)[C@H](OC(=O)CC(C)(C)C)C3=C(C)[C@@H](OC(=O)[C@H](O)[C@@H](NC(=O)OC(C)(C)C)C(F)(F)F)C[C@@](O)([C@@H](OC(=O)c4ccccc4)[C@H]21)C3(C)C | 9.30 | 9.22 | 7.92 | 9.30 | 9.30 |
| CC(=O)O[C@@]12CO[C@@H]1C[C@H](O)[C@@]1(C)C(=O)[C@H](OC(=O)N3CCOCC3)C3=C(C)[C@@H](OC(=O)[C@H](O)[C@@H](NC(=O)OC(C)(C)C)C(F)(F)F)C[C@@](O)([C@@H](OC(=O)c4ccccc4)[C@H]21)C3(C)C | 9.40 | 9.40 | 7.32 | 9.40 | 9.30 |
| CC(=O)O[C@@]12CO[C@@H]1C[C@H](O)[C@@]1(C)C(=O)[C@H](OC(=O)N(C)C)C3=C(C)[C@@H](OC(=O)[C@H](O)[C@@H](NC(=O)OC(C)(C)C)C(F)(F)F)C[C@@](O)([C@@H](OC(=O)c4ccccc4)[C@H]21)C3(C)C | 9.70 | 9.40 | 7.77 | 9.22 | 9.52 |
